Experimental data as given in US7763733B2, “Ritonavir analogous compound useful as retroviral protease inhibitor, preparation of the ritonavir analogous compound and pharmaceutical composition for the ritonavir analogous compound” (Cristalia Produtos Quimicos Farmaceuticos Ltda., priority 2004, dated 2010).

Tests used:
[1] = system: HIV pNL4-3 (subtype B); assay: Antiviral activity in HIV-infected MT-4 cells (MTT cellular viability); assay type: cell-based; conditions: MOI 0.002, MTT staining at the sixth day, ritonavir as internal control
Procedure: The anti-HIV activity of the compound of the present invention was determined using MT-4 cells, a lymphocytic cell line established in culture, CD4^+, and expressing HIV-1 […] co-receptors. The cells were infected using a plate having 96 wells containing 10^4 cells/well. The cells were infected with MOI (Multiplicity Of Infection) of 0.002 (NIH requirement=0.001 to 0.01). The drugs were initially diluted in dimethyl sulfoxide (DMSO) to a final concentration of 20 mM and later in RPMI 1640 base medium to a concentration of 200 μM. […] The culture medium utilized for this procedure was RPMI 1640 including 10% bovine fetal serum, antibiotics […]/penicillin and L-glutamine. The most concentrated well has a final concentration of 10.000 μM being followed by the indicated dilutions: 2.0 μM; 0.400 μM; 0.0800 μM; 0.016 μM; 0.0032 μM; 0.00064 μM and 0.000128 μM. The ninth well is considered as the infection control, without adding the drug. Each line having […] infected wells is produced in triplicate for later statistics analyses. […]
The infection test is maintained in an incubator having 5% of CO2 at 37° C. and monitored daily using phase optical microscopy method to verify appearance of syncytia (multinuclear cells). […]

[2] = system: HIV; conditions: anti-HIV activity test, values as described in U.S. Pat. No. 5,541,206; cited from earlier work

| anti-HIV activity (EC50, FIG. 2) in comparison with ritonavir and analogs [1] | Compound | IC50 [2] |
| --- | --- | --- |
| surprisingly superior activity | CC(C)c1nc(CN(C)C(=O)N[C@H](C(=O)N[C@@H](Cc2ccccc2)C[C@H](O)[C@H](Cc2ccccc2)NC(=O)[C@@H](NC(=O)N(C)Cc2csc(C(C)C)n2)C(C)C)C(C)C)cs1 [example 1C, (2S,3S,5S)-2,5-bis-[N—[N—[[N-methyl-N-[(2-isopropyl-4-thiazolyl)methyl]amino]carbonyl]valinyl]amino]-1,6-diphenyl-3-hydroxyhexane] |  |
|  | CC(C)c1nc(CN(C)C(=O)NC(C(=O)NC(Cc2ccccc2)CC(O)C(Cc2ccccc2)NC(=O)OCc2cnc(C(C)C)s2)C(C)C)cs1 (stereo not shown) [example 45C] | 36 to 40 nM |
|  | CC(C)Cc1nc(CN(C)C(=O)N[C@H](C(=O)N[C@@H](Cc2ccccc2)C[C@H](O)[C@H](Cc2ccccc2)NC(=O)OCc2cncs2)C(C)C)cs1 [example 59G] | 110 to 130 nM |
|  | CC(C)c1nc(CN(C)C(=O)NC(C(=O)NC(Cc2ccccc2)CC(O)C(Cc2ccccc2)NC(=O)OCc2cncs2)C(C)C)cs1 [ritonavir, (2S,3S,5S)-5-[N—[N—[[N-methyl-N-[(2-isopropyl-4-thiazolyl)methyl]amino]carbonyl]vanilyl]amino-2-[N [(5-thiazolyl)methoxycarbonyl]amino-1,6-diphenyl-3-hydroxyhexane] | 25 to 40 nM |
